This is an account of results in patent US11680086B2, “Lipopeptide for potently inhibiting HIV, derivative thereof, pharmaceutical composition thereof and use thereof” (Institute of Pathogen Biology, Chinese Academy of Medical …, priority 2017, dated 2023).

For series [1], the system named is SIV pseudoviruses SIVpbj and SIV239. Put plainly: inhibition of SIV pseudoviruses. The format is cell-based. On the procedure: (§1) The supernatant was discarded from the wells. […] Inhibition rate (%) and IC50 value were calculated.
(§2) In order to further reflect the antiviral advantages of the potent lipopeptides of the present invention, their inhibitory activity against HIV-2 and SIV was determined in the example. The methods of antiviral activity assays used were described in the literatures published by the present inventors (see the References 13 and 30 listed in the Background Art). The molecular cloning plasmid pROD of the HIV-2 strain ROD (HIV-2ROD) was kindly provided by Professor Nuno Taveira from the University of Lisbon, Portugal, and the plasmids expressing the SIV strain SIVpbj (SIVPBJ) and SIV239 envelope proteins (pSIVpbj-Env and pSIV239, respectively) were kindly provided by Professor Xu Jianqing from the Fudan University. The preparation of the infectious ROD was the same as that of the infectious JRCSF in the above section 2.1, and the pseudoviruses SIVpbj and SIV239 were prepared by a method same as that described in the above Examples 2 and 3.

The subject of series [2] is NL4-3 pseudovirus carrying T-20 resistance mutation site of NHR. Put plainly: inhibition of T-20 resistant strains. The settings on record: strains with single or double mutations. The format is cell-based, HIV-1.
The subject of series [3] is HIV-2 strain ROD (infectious). Put plainly: inhibition of HIV-2. Format: cell-based. As to conditions: HIV-2 ROD. As to the method:
(§3) Inhibition rate (%) and IC50 value were calculated.
as §2

Series [4] relates to 35 HIV-1 pseudoviruses (subtypes A, B, B', C, G, A/C, A/E, B/C). The settings on record: for pIC50: read-out: average IC50 for inhibition of various types of HIV-1 pseudoviruses, average over 35 pseudoviruses; for inhibitory activity against different subtypes of HIV-1 as folds of T-20: relative to T-20, from average IC50. The source says:
HIV-1 pseudovirus-mediated cell entry inhibition assay: basic steps included: (1) Preparation of HIV-1 pseudovirus: the 293T cells were co-transfected with a plasmid expressing the envelope protein (Env) of HIV-1 strain NL4-3 (i.e., a recombinant expression plasmid obtained by inserting the gene encoding the envelope protein (ENV) of the D36G mutant of the HIV-1 strain NL4-3 in the Table 2 of the Reference 14 listed in the Background Art into the vector pcDNA3.1(−)) and the HIV-1 backbone plasmid pSG3Δenv (provided by the AIDS Reagent Program of National Institutes of Health (NIH), catalog number: 11051) by using a cell transfection reagent, incubated in a cell incubator of 37° C. and 5% CO2 for 6 hours, and then the medium was changed, and the cells were further incubated for 48 hours. The cell culture supernatant containing pseudovirus particles was pipetted and filtered with a 0.45 μm filter to collect the supernatant, then 20% fetal bovine serum (FBS) was added thereto, the final solution was transferred to a polypropylene tube, and stored at −80° C. for ready for use or directly subjected to virus titration. (2) Titration of HIV-1 pseudovirus: the viruses were diluted by 5 folds in a 96-well plate, and 4 replicate wells with 8 gradients were set to a final volume of 100 microliters. The TZM-b1 cells were trypsinized and counted, and the cells were diluted to 1×10^5 cells/ml with DMEM complete medium; 100 μl of cells dilution (containing 15 μg/ml DEAE-dextran) per well were added and cultured at 37° C. and 5% CO2 for 48 hours. The 96-well plate was then taken from the cell culture incubator. The supernatant was discarded from the wells. To each well, 30 μl of a cell lysate was added, and after 10 minutes, 100 μl of a luciferase detection reagent was added. 100 μl of liquid was pipetted from each well and added to a corresponding 96-well white plate, and the luminescence values were read by a microplate photometer. The virus titer was calculated by the Reed-Muench method. (3) Antiviral activity assay: the test substance was dissolved in DMSO and diluted with a cell culture solution by 3 folds, and placed in a 96-well plate at a final volume of […]. 50 μl of a DMEM medium was used in place of the test substance as a negative control. To each well, 100 μl of TZM-b1 target cells solution (containing 15 μg/ml DEAE-dextran) at a concentration of 1×10^5 cells/ml was added, and then 50 μl (corresponding to 100 TCID50 per well) of the HIV-1 pseudovirus obtained above was added. After incubation at 37° C. and 5% CO2 for 48 hours, the relative light units (RLU) of each well were determined by using a luciferase detection reagent (Promega). Inhibition rate (%) and IC50 value were calculated.
Among them, the A, B and C subtypes were the main viruses causing AIDS epidemic in the world, while B/C and A/E recombinant viruses were the main viruses in China. […] Among the Env expression plasmids used for the preparation of pseudoviral, except that the Env expression plasmids used for preparation of PVO, Du156 and CAP 210.2.00.E8 were obtained from the AIDS Reagent Program of NIH in the United states, other plasmids were preserved by the laboratory of Prof. He Yuxian, Institute of Pathogen Biology, Chinese Academy of Medical Sciences, please see the References 13, 14 and 18 listed in the Background Art and articles of Chong et al. (Chong H, Yao X, Zhang C, Cai L, Cui S, Wang Y, He Y. Biophysical property and broad anti-HIV activity of Albuvirtide, a 3-maleimimidoproprotionic acid-modified peptide fusion inhibitor. PLoS One, 2012; 7 (3): e 32599). The preparation of the pseudovirus and the antiviral assay were the same as those in Example 2.1 of Example 2 (HIV-1 pseudovirus-mediated cell entry inhibition assay).

Series [5] addresses N39 (NHR-derived polypeptide of gp41) (Human immunodeficiency virus type 1 group M subtype B, UniProt P04578). Format: binding, HIV-1. The settings on record: 10 μM each, PBS pH 7.2. As to the method:
(§4) The circular dichroism spectrophotometer was Jasco-815 by JASCO Inc., and the assay method was referred to the papers published by the inventors (see the References 18 and 30 listed in the Background Art). […] The N39 and an inhibitor were separately dissolved in a phosphate buffered saline (PBS) to prepare a PBS solution (pH 7.2) of a concentration of 20 μM. The N39 was mixed with an inhibitor at a volume ratio of 1:1 (final concentration of 10 μM for each), the mixed sample was placed at 37° C. for 30 minutes to fully react, and then the helix content and Tm value of the resultant complex were measured by the circular dichroism spectrophotometer. The scan wavelength range of the device was 195-260 nm with a wavelength interval of 1 nm, and the values measured by scanning for three times were averaged. Based on the CD signals, the interaction between the polypeptides and the helix content were determined. Then, the sample for CD signal measurement was transferred to the temperature scanning sample cell, the program of the CD device was set to temperature scanning with a detection wavelength of 220 nm and scanning range of 20-98° C., and the program scan was performed to obtain the curve of the CD signals vs temperature, based on which the Tm value was calculated. Based on the Tm value, the stability of the formed helical structure of the inhibitor and N39 was judged.

The next series concerns HIV-1 strain JRCSF. The format is cell-based. On the procedure:
as §3

The nature of series [6]: circular dichroism secondary structure analysis of the inhibitors themselves. The format is physicochemical. As to conditions: 20 μM and 40 μM in PBS. On the procedure:
as §4
For easy analysis, the α-helix content and the Tm value of the inhibitors were measured at concentrations of 10 μM, 20 μM, and 40 μM (PBS solution), respectively.
A general note: Circular dichroism is the unequal absorption of left and right circularly polarised light.

The test system of series [7] is HXB2-mediated cell fusion (HL2/3 effector cells, TZM-b1 target cells). The format is cell-based, HIV-1.
Experimental: HIV-1 mediated cell fusion inhibition assay: the effector cells (HL2/3 cells) and target cells (TZM-b1 cells) were provided by the AIDS Reagent Program of National Institutes of Health (NIH) (catalog numbers: 1294 and 8129, respectively). The both cells were adherent cells and were cultured in a DMEM cell culture medium containing ampicillin/streptomycin double antibiotics and 10% fetal bovine serum (FBS). The TZM-b1 was first added to a 96-well cell culture plate (1×10^4 cells/well), and cultured overnight at 37° C. and 5% CO2. The test substance was diluted with the DMEM cell culture medium by 3 folds and mixed with HL2/3 effector cells (3×10^4 cells/well), then added to the TZM-b1 target cells, and further cultured for 6 hours to fully fuse. The activity of luciferase (relative fluorescence units, RLU) was then determined using a luciferase reporter gene kit from Promega company according to the instructions. The inhibition rate of each sample at each concentration was calculated, and the half effective inhibitory concentration (IC50 value) was calculated using GraphPad Prism Software 2.01.
The subject of series [8] is HIV-1 strain NL4-3 pseudovirus (D36G mutant). Format: cell-based. On the procedure:
as §1

pIC50: −log10 of the molar value. Peptide text beside a SMILES is read from it. * marks the point of attachment. Palmitoyl = CCCCCCCCCCCCCCCC(=O)*

Sequence of N39 (NHR-derived polypeptide of gp41) (P04578 528-566): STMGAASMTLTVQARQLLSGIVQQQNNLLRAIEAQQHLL

The pIC50 is −log10 of the IC50, conventionally taken in molar units. In the case of `CCCCCCCCCCCCCCCC(=O)NCCCC[C@H](NC(=O)[C@H](CCC(=O)O)NC(=O)[C@H](CC(C)C)NC(=O)[C@H](CCCCN)NC(=O)[C@H](CCCCN)NC(=O)[C@H](CC(C)C)NC(=O)[C@H](CCC(=O)O)NC(=O)[C@H](CCC(=O)O)NC(=O)[C@H](CCC(=O)O)NC(=O)[C@H](CC(N)=O)NC(=O)[C@H](CCCCN)NC(=O)[C@H](CCCCN)NC(=O)[C@H](CCC(N)=O)NC(=O)[C@H](CCC(N)=O)NC(=O)[C@H](CCC(=O)O)NC(=O)[C@H](CCC(=O)O)NC(=O)[C@H](C)NC(=O)[C@H](CCCCN)NC(=O)[C@H](CCCCN)NC(=O)[C@H](CC(C)C)NC(=O)[C@H](CC(C)C)NC(=O)[C@H](CCC(=O)O)NC(=O)[C@H](CCC(=O)O)NC(=O)[C@@H](NC(C)=O)[C@@H](C)CC)C(N)=O` [LP-65] (Ac-IEELLKKAEEQQKKNEEELKKLEK(Palmitoyl)-NH2), the “inhibitory activity against SIV (in words)” value in series [1] was “extremely potent inhibitory activity”. For the same molecule, in [2], the “inhibitory activity against T-20 resistant strains (in words)” value was “much lower active against T-20 resistant mutant strains than the LP-52 and LP-80”. Moreover, in series [3], the “inhibitory activity against HIV-2 (in words)” value is given as “extremely potent inhibitory activity”. Besides, in series [4], the pIC50 is 10.28 and the “inhibitory activity against different subtypes of HIV-1 as folds of T-20” value turned out to be 796 folds. For the same molecule, in [5], the “Tm value of the complex with N39” value is 72.1 °C and the “helix content of the complex with N39” value worked out at 63%.

Turning to `CCCCCCCCCCCCCCCC(=O)NCCCC[C@H](NC(=O)[C@H](CC(=O)O)NC(=O)[C@H](CC(C)C)NC(=O)[C@H](CCC(=O)O)NC(=O)[C@H](CC(C)C)NC(=O)[C@H](CC(C)C)NC(=O)[C@H](CCC(=O)O)NC(=O)[C@H](CCC(N)=O)NC(=O)[C@H](CCC(=O)O)NC(=O)[C@H](CC(N)=O)NC(=O)[C@H](CCCCN)NC(=O)[C@H](CCC(=O)O)NC(=O)[C@H](CCC(N)=O)NC(=O)[C@H](CCC(N)=O)NC(=O)[C@H](CC(N)=O)NC(=O)[C@H](CCC(N)=O)NC(=O)[C@H](CO)NC(=O)[C@H](CCC(=O)O)NC(=O)[C@H](CCC(=O)O)NC(=O)[C@@H](NC(=O)[C@H](CC(C)C)NC(=O)[C@H](CO)NC(=O)[C@H](Cc1c[nH]cn1)NC(=O)[C@@H](NC(=O)[C@H](CC(C)C)NC(=O)[C@H](CO)NC(=O)[C@@H](NC(=O)[C@H](Cc1ccc(O)cc1)NC(C)=O)[C@@H](C)O)[C@@H](C)CC)[C@@H](C)CC)C(N)=O` [LP-40] (Ac-YTSLIHSLIEESQNQQEKNEQELLELDK(Palmitoyl)-NH2), in series [1], the “inhibitory activity against SIV (in words)” value is “only slightly improved”. Also, the “inhibitory activity against T-20 resistant strains (in words)” value in [2] is recorded as “had been improved”. Moreover, the “inhibitory activity as folds of that of T-20” value (“inhibitory activity as folds” below) in the series on HIV-1 strain JRCSF (JRCSF replication, relative to T-20) is around 18 folds. In addition, the “inhibitory activity against HIV-2 (in words)” value in series [3] is recorded as “only slightly improved”. For the same molecule, in series [4], the pIC50 is 8.20 and the “inhibitory activity against different subtypes of HIV-1 as folds of T-20” value turned out to be 7 folds. The “secondary structure of the inhibitor itself (in words)” value in series [6] is on record as “small amount of helical structure”. The “inhibitory activity as folds” value in series [7] (HXB2-mediated cell fusion, relative to T-20) is given as “about 59 folds”. In [5], the “Tm value of the complex with N39” value stood at 51.3 °C and the “helix content of the complex with N39” value was 57.7%. In addition, the “inhibitory activity as folds” value in series [8] (NL4-3 pseudovirus entry, relative to T-20) is reported as around 21 folds.

With `CCCCCCCCCCCCCCCC(=O)NCCCC[C@H](NC(=O)[C@H](CCCCN)NC(=O)[C@H](CC(C)C)NC(=O)[C@H](CCC(=O)O)NC(=O)[C@H](CCC(=O)O)NC(=O)[C@H](CCC(=O)O)NC(=O)[C@H](CC(N)=O)NC(=O)[C@H](CCCCN)NC(=O)[C@H](CCCCN)NC(=O)[C@H](CCC(N)=O)NC(=O)[C@H](CCC(N)=O)NC(=O)[C@H](CCC(=O)O)NC(=O)[C@H](CCC(=O)O)NC(=O)[C@H](C)NC(=O)[C@H](CCCCN)NC(=O)[C@H](CCCCN)NC(=O)[C@H](CC(C)C)NC(=O)[C@H](CC(C)C)NC(=O)[C@H](CCC(=O)O)NC(=O)[C@H](CCC(=O)O)NC(=O)[C@@H](NC(=O)[C@H](CCCCN)NC(=O)[C@H](CCC(N)=O)NC(=O)[C@H](CCC(=O)O)NC(=O)[C@H](Cc1c[nH]c2ccccc12)NC(C)=O)[C@@H](C)CC)C(N)=O` [LP-55] (Ac-WEQKIEELLKKAEEQQKKNEEELKK(Palmitoyl)-NH2), the “inhibitory activity against SIV (in words)” value in series [1] is “significantly affected the activity”. Also, the “inhibitory activity against T-20 resistant strains (in words)” value in series [2] was “much lower active against T-20 resistant mutant strains than the LP-52 and LP-80”. Besides, the “decrease of inhibitory activity against JRCSF infection” value with HIV-1 strain JRCSF (compared with template LP-52) is recorded as “about 2 fold”. For the same molecule, the “inhibitory activity against HIV-2 (in words)” value in [3] is on record as “significantly affected the activity”. In addition, in series [4], the pIC50 was 10.47 and the “inhibitory activity against different subtypes of HIV-1 as folds of T-20” value stood at 1218 folds. Also, the “inhibitory activity against HXB2-cell fusion (in words)” value in series [7] (compared with template LP-52) is “essentially unchanged”. Also, in series [5], the “Tm value of the complex with N39” value was found to be 63.1 °C. Also, in series [8] (compared with template LP-52), the “decrease of inhibitory activity against NL4-3 infection” value was “about 2 fold”.
